Assays:
[1] = test system: Human pulmonary artery endothelial cells (HPAEC); assay: Immunofluorescence staining of irradiated HPAECs (Example 4); format: cell-based; conditions: 10 ng/mL, 12 hours before 10 Gy radiation
Description: (§1) Human pulmonary artery endothelial cells (HPAEC) bought from Promocell were cultured in a culture chamber at a temperature of 37° C. under a 5% CO2 condition using a medium including various growth factors necessary for growth of the vascular endothelial cell.
(§2) HPAECs were plated in 3.5 cm, 6 cm, and 10 cm culture dishes and cultured in a CO2 incubator at 37° C. so that the cells were 70% to 80% confluent. 2-Methoxyestradiol was selectively pre-treated according to the test groups. 10 Gy gamma rays (^137Cs) (Atomic Energy of Canada, LTd., Canada) were radiated at a dose of 3.81 Gy/min.
HPAECs were cultured on the cover slide, selectively pre-treated with 2-methoxyestradiolin according to test groups, and irradiated. HPAECs were then fixed in 10% neutral formalin for one day, and washed with phosphate buffered saline (PBS) before staining. After blocking with 2% bovine serum albumin (dissolved inPBS) before the first antibody reaction, VE-cadherin, hypoxia-inducible factor 1-alpha (HIF-1α), SMAD, p-SMAD2/3, and α-SMA antibodies, diluted at 1:100, were reacted at 4° C. for 16 hours. After washing with PBS, the second antibodies having fluorescent stains attached were diluted at 1:500 and reacted at 25° C. for 1 hour. The nuclei were stained with a fluorescent stain 4′,6-diamidino-2-phenylindole (DAPI). After washing with PBS, a drop of glycerol was applied to attach the stained cells to the glass slide.
Human pulmonary artery endothelial cells which received 10 Gy radiation were fixed in 10% neutral formalin, and reacted with phalloidin, CA-9, and VE-cadherin antibodies. Then, fluorescent-labeled secondary immunoglobulins were used to stain CA9, phalloidin, and VE-cadherin in red, green, and white, respectively. The cell nuclei were stained in blue using DAPI. The group received 10 Gy radiation 12 hours after treating HPAECs with 10 ng/mL 2-methoxyestradiol.

[2] = test system: pulmonary artery endothelium, C57BL/6 mouse, 16 Gy on the lung; assay: Radiation-induced pulmonary fibrosis in mouse, trichrome staining of collagen (Example 5); format: in vivo; conditions: 150 mg/kg i.p. 1 hour before 16 Gy irradiation of the lung; compared to IR; **: P<0.01
Description: (§3) Tissue from a mouse was fixed in 10% neutral formalin for one day, and paraffin sections were prepared. The paraffin sections were then reacted for 5 minutes in each of xylene, and 95%, 90%, and 70% ethanol solutions in that order to deparaffinize the paraffin around the tissue for staining. For antigen activation, the tissue was soaked in a 0.1 M citric acid solution (pH 6.0) and boiled.
The tissue was then reacted in Bouin's solution for 1 minute, Weigert's hematoxylin for 10 minutes, phosphotunstic/phosphomolydic acid for 10 minutes, aniline blue for 5 minutes, and 1% acetate for 1 minute in that order. After dehydration, the tissue was sealed with a cover glass, and observed with a confocal microscope.
To observe whether the symptoms of pulmonary fibrosis induced after radiotherapy include pulmonary fibrosis of vascular endothelial cells, a C57BL/6 mouse was exposed to 16 Gy radiation on the lung. The lung was extracted from the mouse, and collagen, a protein appearing on the cross-section of aorta during the fibrosis of pulmonary artery endothelial cell, was detected by trichrome staining. The group treated with 2-methoxyestradiol was intraperitoneally injected in an amount of 150 mg/kg 1 hour before irradiation. […]

[3] = test system: p-SMAD, Smad 2/3, α-SMA in HPAECs; assay: Western blot of fibrosis-related proteins in irradiated HPAECs (Example 6); format: cell-based, human; conditions: 12 hours before 10 Gy radiation
Description: as §1, §2
After the cultured cells were irradiated, specimens in which the cells were dissolved in a solution of 150 mM sodium chloride, 40 mM Tris-Cl (pH 8.0), 0.1% NP-40 were prepared to observe intracellular proteins. Sodium dodecyl sulfate polyacrylamide gel electrophoresis (SDS-PAGE) was performed on the specimens, followed by Western blot analysis. The proteins separated by electrophoresis were transferred to a nitrocellulose membrane, and the amount of protein expression was analyzed using the immunoblotting method.
In order to observe changes in the expression amount of the proteins related to HPAEC pulmonary fibrosis according to the concentrations of 2-methoxyestradiol (0.5 μM and 1 μM), the cultured HPAECs were pre-treated with 0.5 μM or 1 μM 2-methoxyestradiol and received 10 Gy radiation 12 hours later. Western blot analysis was then performed using p-SMAD, Smad 2/3, and alpha smooth muscle actin (α-SMA) antibodies. To measure a quantitative amount of the protein, Western blot was performed using β-actin antibodies.

[4] = test system: pulmonary artery endothelium, mouse model with lung cancer (mutated p53 and ras), 16 Gy; assay: Fibrosis of vascular endothelium after irradiation in mouse model with lung cancer (Example 7); format: in vivo; conditions: 150 mg/kg i.p. 1 hour before 16 Gy irradiation, compared to IR
Description: (§4) Tissue from a mouse was fixed in 10% neutral formalin for one day, and paraffin sections were prepared. The paraffin sections were then reacted for 5 minutes in each of xylene, and 95%, 90%, and 70% ethanol solutions in order to deparaffinize the paraffin around the tissue for staining. The tissue was then put into hematoxylin for 1 minute to stain the nucleus and washed with running water for 10 minutes, followed by dipping in eosin for 30 seconds to stain the cytoplasm. The tissue was then dipped in 50%, 70%, 90%, and 95% ethanol, and xylene in that order, and a drop of a mounting solution was applied thereto. The tissue was covered with a cover slide and observed with a microscope (Carl Zeiss Vision).
as §3
The tissue was then reacted in Bouin's solution for 1 minute, Weigert's hematoxylin for 10 minutes, phosphotunstic/phosphomolydic acid for 10 minutes, aniline blue for 5 minutes, and 1% acetate for 1 minute in that order. […]

[5] = test system: blood vessels of the skin, C57BL/6 mouse, 20 Gy on the thorax; assay: Radiation-induced in vivo vascular injury of skin (Example 2); conditions: compared to untreated group (IR)
Description: Tissue from a mouse was fixed in 10% neutral formalin for one day, and paraffin sections were prepared. The paraffin sections were then reacted for 5 minutes in each of xylene, and 95%, 90%, and 70% ethanol solutions in that order to deparaffinize the paraffin around the tissue. For antigen activation, the tissue was immersed in 0.1 M citrate (pH 6.0) and brought to a boil for 30 minutes, followed by reacting with 3% hydrogen peroxide for 15 minutes. Meanwhile, the tissue was then reacted in phosphate based saline buffer (PBS, 0.1% triton x-100 included) including CD31 (abcam, 1:100 dilution) at 4° C. for 16 hours. After washing with PBS, secondary antibodies having biotin conjugated were diluted at 1:200 and incubated at room temperature for 30 minutes. Avidin biotin complex (ABC) was applied and incubated at room temperature for 30 minutes, and 3,3′-DAB(3,3′-diaminobenzidine) was added for color detection. Hematoxylin was used for counterstaining. The tissue was then dipped in 50%, 70%, 90%, and 95% ethanol, and xylene in that order, and a drop of a mounting solution was applied thereto. The tissue was covered with a cover slide and observed with a microscope (Carl Zeiss Vision).
Skin was extracted from the mouse, and vascular changes inside the skin were observed. […]

[6] = test system: skin tissue, C57BL/6 mouse, 20 Gy on the thorax; assay: Radiation-induced in vivo skin damage, infiltration of inflammatory cells (Example 3); conditions: 2 weeks after irradiation, compared to IR
Description: as §4, with “solutions in that order to” for “solutions in order to”, “around the tissue. The tissue” for “around the tissue for staining. The tissue”
To observe whether inflammatory responses and fibrosis of skin occur during tissue damage induced after radiotherapy, a C57BL/6 mouse was exposed to 20 Gy radiation on the thorax in a size of 7 mm. Skin was extracted from the mouse, and infiltration of inflammatory cells in the skin tissue was observed. The group pre-treated with 2-methoxyestradiol (IR+pre-treatment2Me) received an intraperitoneal injection in an amount of 60 mg/kg 1 hour before the irradiation, and that post-treated with 2-methoxyestradiol (IR+post-treatment2Me) received an intraperitoneal injection in an amount of 60 mg/kg 24 hours after the irradiation.

[7] = test system: lung of a mouse model, 90 Gy irradiation; assay: Radiation-induced lung tissue damage, H&E staining (Example 1); format: in vivo; conditions: 60 mg/kg i.p. 1 hour before 90 Gy irradiation; 2 weeks after irradiation; compared to untreated group (IR)
Description: as §4, with “solutions in that order to” for “solutions in order to”, “around the tissue. The tissue” for “around the tissue for staining. The tissue”
A mouse was exposed to 90 Gy radiation on the thorax in a size of 3 mm. Lung tissue from the mouse model was fixed in 10% neutral formalin, and paraffin sections were prepared. Using the hematoxylin and eosin staining method, inflammatory reactions and fibrosis of the tissue were observed. The cell nuclei were stained in blue and the cytoplasm was stained in pink. One hour before the irradiation, the mouse model received an intraperitoneal injection of 60 mg/kg 2-methoxyestradiol. Two weeks after the irradiation, inflammatory reactions and fibrosis were observed using H&E staining at the site of tissue damage.

[8] = 1 μM, decrease in particular at 1 μM
[9] = post-treated: 60 mg/kg i.p. 24 hours after 20 Gy irradiation
[10] = pre-treated: 60 mg/kg i.p. 1 hour before 20 Gy irradiation

## COc1cc2c(cc1O)CC[C@@H]1[C@@H]2CC[C@]2(C)[C@@H](O)CC[C@@H]12 [2-methoxyestradiol]
[1]
  CA-9 staining, immunofluorescence: significant decrease
  VE-cadherin (white around the cell membrane), immunofluorescence: significant increase
  phalloidin staining, immunofluorescence: significant decrease
[2]
  collagen stained in blue in the aortic wall, trichrome staining: significant decrease
[3]; 0.5 μM
  Smad 2/3 expression, Western blot: relative decrease
  p-SMAD expression, Western blot: relative decrease
  α-SMA expression, Western blot: relative decrease
[3]; [8]
  Smad 2/3 expression, Western blot: relative decrease
  p-SMAD expression, Western blot: relative decrease
  α-SMA expression, Western blot: relative decrease
[4]
  collagen stained in blue around the vascular endothelium, trichrome staining: significant decrease
[5]; [9]
  skin vascular injury: significant reduction
[5]; [10]
  skin vascular injury: significant reduction
[6]; [9]
  number of infiltrated inflammatory cells inside the skin tissue: significantly reduced
[6]; [10]
  number of infiltrated inflammatory cells inside the skin tissue: significantly reduced
[7]
  cell infiltration (inflammatory cells) in lung tissue, H&E staining: significantly reduced
  fibrosis around blood vessels in lung tissue, H&E staining: significantly reduced
